Experimental data as given in patent publication US20130157258A1, “HCV NS5B PROTEASE MUTANTS” (VERTEX PHARMACEUTICALS INCORPORATED, priority 2010, published 2013).
“Also recorded” adds a separate entry of the source.

Experiments:
[1] = test system: HCV NS5B variants (L419C/M/P/S/V, R422K, M423I/T/V, I482L/N/T, A486I/V, V494A); test: Phenotypic analysis of substitutions selected in patients during dosing, replicon system; assay type: cell-based
Description: (§1) Treatment-naïve HCV genotype 1 patients (n=32) were randomized to receive VX-222 at doses of 250 mg BID, 500 mg BID, 750 mg BID, or 1500 mg QD for 3 days, in a treatment:placebo ratio of 6:2 (8 patients/cohort). Pegylated interferon (Peg-IFN) and ribavirin (RBV) for 48 weeks was offered to patients at the end of the study. Sequencing of NS5B was performed at baseline (Day 1), end of dosing (Day 3), and at follow-up timepoints (Days 4, 5, 10, 20, and 60). Phenotypic data (fold change in IC50 from wildtype) of substitutions selected in patients during dosing was determined using a replicon system.

[2] = test system: M423T HCV replicon; test: HCV replicon cell assay, real-time PCR, M423T; assay type: cell-based, HCV genotype 1b
From the text: (§2) All mutations were introduced into the pFKI389/NS3-3′/adapt vector (Krieger et al., J. Virol., 75, 4614-4624 (2001); Lohmann et al., J. Virol., 77, 3007-3019 (2003)) by PCR-based site-directed mutagenesis and standard recombinant DNA technologies. The pFKI389/NS3-3′/adapt vector is a “cell culture adapted HCV replicon” containing a R465G mutation within the NS5B gene, and was obtained from Reblikon GmbH, Gau-Odernheim, Germany. The “cell culture adapted replicon” was chosen instead of the wild-type replicon because the R465G mutation was found in all of the progeny RNA isolated from 9.13 replicon cells used in drug susceptibility studies to compare the fold shift in IC50s (described further below). The adaptive R465G mutation in the NS5B region was previously reported (Krieger et al., supra) and found to be very efficient in generating replicon cell colonies after RNA transfection into Huh-7 cells. […]
(§3) The 9.13 replicon cells and the stable recombinant replicon cells were seeded in a 12-well culture dish at a density of 3×10^4 cells/well in a volume of 1 mL. […] The inhibitory effect of agents against wild-type replicon cells, resistant colonies, or recombinant replicon cells was determined by monitoring the levels of HCV RNA, normalized to cellular 18S ribosomal RNA, by real time PCR using the ABI PRISM® 7700 Sequence Detection System (Applied Biosystems, Foster City, Calif., USA). […]

[3] = test system: I482L HCV replicon; test: HCV replicon cell assay, real-time PCR, I482L; assay type: cell-based, HCV genotype 1b
From the text: as §2, §3

[4] = test system: genotype 1b replicon cells (9.13 replicon cells); test: Selection of drug-resistant HCV replicon colonies under G418; assay type: cell-based, HCV genotype 1b
From the text: Drug-resistant HCV replicons were selected as previously described. (See, e.g., Amparo et al., 46th Conference on Antimicrobial Agents and Chemotherapy (ICAAC). 2006, Abstract 1273; Le Pogam et al., J. Virol., 80(12), 6146-54 (2006); Lin et al., J. Biol. Chem., 279(17), 17508-17514 (2004); Lu et al., Antimicrob. Agents Chemother., 48(6), 2260-2266 (2004); Trozzi et al., J. Virol., 77, 3669-3679 (2003)). Briefly, approximately 2.5×10^4 genotype 1a replicon cells (W11.8 replicon cells at passage 13) or genotype 1b replicon cells (9.13 replicon cells at passage greater than 100) were plated in 75 cm^2 cell culture flasks (Falcon 353136) in complete culture medium with high concentration of G418 (600 μg/mL). […]
(§4) Media and drugs were replaced twice a week over the course of the experiment. Three to four weeks following the initial plating, resistant clones of cells (colonies) were counted and randomly picked for culture or for direct RNA extraction. […]
Mutant replicons resistant to specific inhibitors were made using replicon constructs expressing the neomycin phosphotransferase gene (NPT). […] Cells containing mutant replicons with decreased sensitivity to an inhibitor give rise to colonies that can be counted, isolated, expanded and characterized.

[5] = test system: HCV NS5B substitution at position 494 (V494A); test: Phenotypic analysis in replicon system, substitution at position 494; assay type: cell-based
Description: as §1

[6] = test system: M423I HCV replicon; test: HCV replicon cell assay, real-time PCR, M423I; assay type: cell-based, HCV genotype 1b
From the text: as §2, §3

[7] = test system: V494A HCV replicon; test: HCV replicon cell assay, real-time PCR, V494A; assay type: cell-based, HCV genotype 1b
From the text: as §2, §3

[8] = test system: L419M HCV replicon; test: HCV replicon cell assay, real-time PCR, L419M; assay type: cell-based, HCV genotype 1b
From the text: as §2, §3

[9] = test system: L419S HCV replicon; test: HCV replicon cell assay, real-time PCR, L419S resistant colony; assay type: cell-based; details: Hepatitis C virus, 96 h
Description: The 9.13 replicon cells and the stable recombinant replicon cells were seeded in a 12-well culture dish at a density of 3×10^4 cells/well in a volume of 1 mL. The cell culture media used for the assay was DMEM supplemented with 10% fetal bovine serum, 100 IU/mL of penicillin, 100 μg/mL streptomycin, non-essential amino acids, 2 mM glutamine and 10 mM HEPES. After incubating for 3-4 hours, candidate agents (drugs) were added at various concentrations for a final volume of 2 mL of the same culture media. Cells were incubated for 4 days at 37° C. with 5% CO2. Thereafter, total RNA (cellular and viral origin) was extracted using the RNeasy kit (Qiagen Inc.) according to the manufacturer's protocol. cDNA synthesis was performed using the MMLV reverse transcriptase and random hexamer primer (Invitrogen). The inhibitory effect of agents against wild-type replicon cells, resistant colonies, or recombinant replicon cells was determined by monitoring the levels of HCV RNA, normalized to cellular 18S ribosomal RNA, by real time PCR using the ABI PRISM® 7700 Sequence Detection System (Applied Biosystems, Foster City, Calif., USA). […]
as §4

[10] = test system: HCV NS5B substitution at position 419 (L419C/M/P/S/V); test: Phenotypic analysis in replicon system, substitution at position 419; assay type: cell-based
Description: as §1

[11] = test system: HCV genotype 1; test: Phase Ib/IIa multicenter, randomized, dose-ascending study, 3 days of dosing; assay type: in vivo, human
Description: VX-222 is a non-nucleoside hepatitis C virus (HCV) NS5B polymerase inhibitor with potent in vitro activity. Safety, antiviral activity, and viral sequences were assessed in a phase Ib/IIa multicenter, randomized, dose-ascending study in genotype 1, HCV-infected patients.
as §1

[12] = test system: HCV NS5B substitution at position 486 (A486I/V); test: Phenotypic analysis in replicon system, substitution at position 486; assay type: cell-based
Description: as §1

[13] = test system: HCV NS5B substitution at position 423 (M423I/T/V); test: Phenotypic analysis in replicon system, substitution at position 423; assay type: cell-based
Description: as §1

[14] = test system: HCV NS5B substitution at position 422 (R422K); test: Phenotypic analysis in replicon system, substitution at position 422; assay type: cell-based
Description: as §1

[15] = test system: recombinant mutant replicons (L419M, M423V, M423T, M423I, I482L, A486V, V494A); test: HCV replicon cell assay, real-time PCR, all seven recombinant mutant replicons; assay type: cell-based, HCV genotype 1b
From the text: as §2, §3

[16] = test system: HCV NS5B substitution at position 482 (I482L/N/T); test: Phenotypic analysis in replicon system, substitution at position 482; assay type: cell-based
Description: as §1

[17] = test system: A486V HCV replicon; test: HCV replicon cell assay, real-time PCR, A486V; assay type: cell-based, HCV genotype 1b
From the text: as §2, §3

[18] = test system: M423V HCV replicon; test: HCV replicon cell assay, real-time PCR, M423V; assay type: cell-based, HCV genotype 1b
From the text: as §2, §3

[19] = Hepatitis C virus, 96 h, 4 days, HCV RNA by real time PCR
[20] = 250-750 mg BID or 1500 mg QD for 3 days, patients

SMILES: NC(=O)c1ncn([C@@H]2O[C@H](CO)[C@@H](O)[C@H]2O)n1 [RBV, ribavirin]
- sensitivity of VX-222-selected variants to the agent ([1]; in vitro): did not have reduced sensitivity; also recorded: remained sensitive

SMILES: CC1CCC(C(=O)N(c2cc(C#CC(C)(C)C)sc2C(=O)O)C2CCC(O)CC2)CC1 (stereo not drawn) [VX-222]
- IC50 Fold-Change vs Wild-Type Replicon [2]: 29 fold and ≈29 fold
- IC50 [2, 19]: 319 nM
- IC50 Fold-Change vs Wild-Type Replicon [3]: ≈26 fold
- IC50 [3, 19]: 290 nM
- resistant colony formation ([4]; VX-222 concentration of about 300 fold of the IC50, G418 selection): No colony could be readily detected
- frequency of resistant clones ([4]; equivalent IC50-fold concentration of VX-222, genotype 1b vs genotype 1a replicon cell line, not side by side): higher for the genotype 1b replicon cell line than for the genotype 1a replicon cell line
- fold change in IC50 from wildtype [5]: six
- IC50 Fold-Change vs Wild-Type Replicon [6]: 7.1 fold and ≈7.1 fold
- IC50 [6, 19]: 77.2 nM
- IC50 Fold-Change vs Wild-Type Replicon [7]: ≈5.9 fold
- IC50 [7, 19]: 132 nM
- IC50 Fold-Change vs Wild-Type Replicon [8]: 80 fold and ≈80 fold
- IC50 [8, 19]: 900 nM
- IC50 [9]: > 2000 nM
- fold change in IC50 from wildtype [10]: 20-80 fold
- mean HCV RNA decline ([11]; 250 mg (BID), after three days of dosing, treatment-naive genotype 1 patients): 3.1 log 10
- mean HCV RNA decline ([11]; 500 mg (BID), after three days of dosing, treatment-naive genotype 1 patients): 3.4 log 10
- mean HCV RNA decline ([11]; 750 mg (BID), after three days of dosing, treatment-naive genotype 1 patients): 3.2 log 10
- mean HCV RNA decline ([11]; 1500 mg (QD), after three days of dosing, treatment-naive genotype 1 patients): 3.4 log 10
- most common reported adverse effects (AEs) [11, 20]: diarrhea, headache, nausea, fatigue and fever
- severity of the majority of AEs [11, 20]: mild in severity
- mean HCV RNA decline ([11]; all four dose groups): greater than 3 log 10
- fold change in IC50 from wildtype ([1]; range over all variants selected in patients): 6-80 fold
- fold change in IC50 from wildtype [12]: ~50 fold
- fold change in IC50 from wildtype [13]: seven to ten
- fold change in IC50 from wildtype [14]: ~74 fold
- fold increase of IC50 vs wild-type replicon cells [15]: 6- to 80 fold
- fold change in IC50 from wildtype [16]: ~26 fold
- IC50 Fold-Change vs Wild-Type Replicon [17]: 50 fold and ≈50 fold
- IC50 [17, 19]: 843 nM
- IC50 Fold-Change vs Wild-Type Replicon [18]: 10 fold and ≈10 fold
- IC50 [18, 19]: 110 nM
